Like-named read-outs stand apart in the source and are kept apart here.
Target: T1, human Nav1.8 (Homo sapiens, UniProt Q9Y5Y9)
T1 construct: expressed in transfected cells; host or cells: HEK293 (HEK293-Nav1.8)
Assay: Nav1.8 sodium channels assay, QPatch 48 HTX electrophysiology in HEK293-Nav1.8 cells
Format: cell-based
How it was run: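 HEK293 cells co-expressing human Nav1.8, Navβ1 and TREK1 were voltage-clamped on QPatch 48 HTX. The V1/2 protocol ran at 0.07 Hz: hold −100 mV, 20 ms to 0 mV, 8 s at −46 mV, 20 ms at −100 mV, then 20 ms at 0 mV (P2). P2 current was fitted over 6-8 concentrations for IC50, with vehicle wells used to correct for run-down.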

[1] = at least one set of experimental runs, read-out: average pIC50 value against Nav1.8 (converted)
[2] = Table 1, HEK293-Nav1.8, QPatch 48 HTX, half inactivation state voltage protocol (V1/2), single run or average of two or more runs, read-out: Nav1.8 pIC50 (converted)

T1 sequence (Q9Y5Y9 whole entry): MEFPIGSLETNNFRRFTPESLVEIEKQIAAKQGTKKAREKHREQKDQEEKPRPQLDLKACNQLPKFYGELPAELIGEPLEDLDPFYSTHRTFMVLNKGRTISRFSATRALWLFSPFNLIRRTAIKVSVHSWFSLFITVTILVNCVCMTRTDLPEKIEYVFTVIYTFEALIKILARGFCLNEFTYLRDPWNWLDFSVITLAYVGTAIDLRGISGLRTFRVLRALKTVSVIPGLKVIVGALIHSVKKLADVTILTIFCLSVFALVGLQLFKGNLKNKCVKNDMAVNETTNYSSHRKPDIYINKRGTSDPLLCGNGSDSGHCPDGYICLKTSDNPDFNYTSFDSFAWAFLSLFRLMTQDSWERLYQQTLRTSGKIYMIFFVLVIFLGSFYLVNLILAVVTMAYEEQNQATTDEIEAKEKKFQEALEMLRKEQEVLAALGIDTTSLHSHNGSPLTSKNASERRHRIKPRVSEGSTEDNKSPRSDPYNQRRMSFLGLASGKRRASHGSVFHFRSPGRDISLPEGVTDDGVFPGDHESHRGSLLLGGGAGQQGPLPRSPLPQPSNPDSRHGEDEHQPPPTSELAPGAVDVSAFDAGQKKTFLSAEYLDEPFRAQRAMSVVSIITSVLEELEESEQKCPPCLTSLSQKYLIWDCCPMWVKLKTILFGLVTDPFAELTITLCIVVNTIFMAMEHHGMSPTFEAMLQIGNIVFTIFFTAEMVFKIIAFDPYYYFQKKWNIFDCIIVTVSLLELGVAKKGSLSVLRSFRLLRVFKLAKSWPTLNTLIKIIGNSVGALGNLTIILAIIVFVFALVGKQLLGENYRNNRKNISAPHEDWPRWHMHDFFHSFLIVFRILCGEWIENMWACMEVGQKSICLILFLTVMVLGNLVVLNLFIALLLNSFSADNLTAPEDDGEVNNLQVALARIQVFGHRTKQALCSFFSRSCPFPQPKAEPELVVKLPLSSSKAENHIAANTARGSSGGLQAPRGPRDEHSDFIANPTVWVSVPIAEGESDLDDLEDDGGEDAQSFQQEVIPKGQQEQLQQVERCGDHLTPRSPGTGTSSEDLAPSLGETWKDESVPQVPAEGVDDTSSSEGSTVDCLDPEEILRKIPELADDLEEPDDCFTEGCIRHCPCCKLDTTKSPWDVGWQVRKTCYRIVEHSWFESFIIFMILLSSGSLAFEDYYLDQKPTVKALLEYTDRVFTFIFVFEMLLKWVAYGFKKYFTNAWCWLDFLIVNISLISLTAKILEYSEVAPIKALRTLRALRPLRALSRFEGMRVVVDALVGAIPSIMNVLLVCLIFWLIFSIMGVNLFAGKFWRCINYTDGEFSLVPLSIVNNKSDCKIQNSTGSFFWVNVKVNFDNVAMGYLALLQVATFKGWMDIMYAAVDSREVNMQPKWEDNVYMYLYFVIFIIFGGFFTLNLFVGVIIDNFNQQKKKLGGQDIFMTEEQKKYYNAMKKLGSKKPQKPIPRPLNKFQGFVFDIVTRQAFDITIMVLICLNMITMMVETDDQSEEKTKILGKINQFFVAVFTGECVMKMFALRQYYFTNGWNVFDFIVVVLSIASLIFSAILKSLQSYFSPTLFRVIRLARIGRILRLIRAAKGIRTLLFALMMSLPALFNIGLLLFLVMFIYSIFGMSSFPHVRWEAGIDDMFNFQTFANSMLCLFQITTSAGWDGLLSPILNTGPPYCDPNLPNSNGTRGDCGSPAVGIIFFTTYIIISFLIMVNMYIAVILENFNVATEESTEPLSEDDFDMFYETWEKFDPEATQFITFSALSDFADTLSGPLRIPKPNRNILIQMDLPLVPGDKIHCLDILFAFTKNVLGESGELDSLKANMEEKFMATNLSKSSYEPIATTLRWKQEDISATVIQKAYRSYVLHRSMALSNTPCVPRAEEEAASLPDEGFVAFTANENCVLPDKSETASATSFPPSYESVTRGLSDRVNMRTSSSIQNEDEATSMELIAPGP
T1 sequence (Q07699 19-218 partner): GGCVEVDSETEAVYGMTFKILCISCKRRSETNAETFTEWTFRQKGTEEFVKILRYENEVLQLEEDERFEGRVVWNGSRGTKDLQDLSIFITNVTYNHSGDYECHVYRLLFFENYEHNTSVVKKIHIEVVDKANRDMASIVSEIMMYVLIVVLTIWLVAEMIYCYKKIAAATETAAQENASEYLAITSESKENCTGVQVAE

Compound	IC50 [1] [nM]	IC50 [2] [nM]
Cc1[nH]c(=O)ccc1N1CN(c2ccc(F)c(F)c2C)c2ccc(C(F)(F)F)cc2C1=O [Example 96, 1-(3,4-difluoro-2-methylphenyl)-3-(2-methyl-6-oxo-1,6-dihydropyridin-3-yl)-6-(trifluoromethyl)-2,3-dihydroquinazolin-4(1H)-one]	≤ 100	
Cc1cc(F)ccc1N1CN(c2ccc(=O)[nH]c2)C(=O)c2ccc(C(F)(F)F)cc21 [drawing 261, 1-(4-fluoro-2-methylphenyl)-3-(6-oxo-1,6-dihydropyridin-3-yl)-7-(trifluoromethyl)-2,3-dihydroquinazolin-4(1H)-one]		126
Cc1[nH]c(=O)ccc1N1CN(c2ccc(F)cc2C(C)C)c2nc(C(F)F)ccc2C1=O [Example 122, 7-(difluoromethyl)-1-(4-fluoro-2-isopropylphenyl)-3-(2-methyl-6-oxo-1,6-dihydropyridin-3-yl)-2,3-dihydropyrido[2,3-d]pyrimidin-4(1H)-one]	≤ 100	
Cc1cc(F)ccc1N1CN(c2ccc(=O)[nH]c2)C(=O)c2ccc(C(F)(F)F)c(Cl)c21 [Example 44, 8-chloro-1-(4-fluoro-2-methylphenyl)-3-(6-oxo-1,6-dihydropyridin-3-yl)-7-(trifluoromethyl)-2,3-dihydroquinazolin-4(1H)-one]	794 to 7940	
Cc1cc(F)ccc1N1CN(c2ccc(=O)[nH]c2C)C(=O)c2ccc(C(F)(F)F)nc21 [drawing 288, 1-(4-fluoro-2-methylphenyl)-3-(2-methyl-6-oxo-1,6-dihydropyridin-3-yl)-7-(trifluoromethyl)-2,3-dihydropyrido[2,3-d]pyrimidin-4(1H)-one]		251
Cc1cc(F)ccc1N1CN(c2ccc(=O)[nH]c2C)C(=O)c2cc(F)c(F)cc21 [Example 158, 6,7-difluoro-1-(4-fluoro-2-methylphenyl)-3-(2-methyl-6-oxo-1,6-dihydropyridin-3-yl)-2,3-dihydroquinazolin-4(1H)-one]	≤ 100	
Cc1cc(F)ccc1N1CN(c2ccc(=O)[nH]c2)C(=O)c2ccc(C#N)cc21 [Example 222, 1-(4-fluoro-2-methylphenyl)-4-oxo-3-(6-oxo-1,6-dihydropyridin-3-yl)-1,2,3,4-tetrahydro-quinazoline-7-carbonitrile]	794 to 7940	
Cc1cc(F)ccc1N1CN(c2ccc(=O)[nH]c2C)C(=O)c2ccc(C3COC3)cc21 [Example 265, 1-(4-Fluoro-2-methylphenyl)-3-(2-methyl-6-oxo-1,6-dihydropyridin-3-yl)-7-(oxetan-3-yl)-2,3-dihydroquinazolin-4(1H)-one]	126 to 631	
Cc1cc(F)ccc1N1CN(c2cn[nH]c2)C(=O)c2cc(C(F)(F)F)ccc21 [Example 18, 1-(4-fluoro-2-methylphenyl)-3-(1H-pyrazol-4-yl)-6-(trifluoromethyl)-2,3-dihydroquinazolin-4(1H)-one]	794 to 7940	
COc1cc(F)ccc1N1CN(c2ccc(=O)[nH]c2)C(=O)c2ccc(C(F)(F)F)cc21 [Example 216, 1-(4-fluoro-2-methoxyphenyl)-3-(6-oxo-1,6-dihydropyridin-3-yl)-7-(trifluoromethyl)-2,3-dihydroquinazolin-4(1H)-one]	126 to 631	
Cc1cc(F)ccc1N1CN(c2ccc(=O)[nH]c2Cl)C(=O)c2cc(C(F)(F)F)ccc21 [Example 210, 3-(2-chloro-6-oxo-1,6-dihydropyridin-3-yl)-1-(4-fluoro-2-methylphenyl)-6-(trifluoromethyl)-2,3-dihydroquinazolin-4(1H)-one]	126 to 631	
Cc1cc(F)ccc1N1CN(c2c[nH]c(=O)nc2C)C(=O)c2cc(Cl)ccc21 [Example 61, 6-chloro-1-(4-fluoro-2-methylphenyl)-3-(4-methyl-2-oxo-1,2-dihydropyrimidin-5-yl)-2,3-dihydroquinazolin-4(1H)-one]	≤ 100	
Cc1[nH]c(=O)ccc1N1CN([C@@H]2CCOC[C@@H]2C)c2cc(C(F)(F)F)ccc2C1=O [Example 282, 3-(2-Methyl-6-oxo-1,6-dihydropyridin-3-yl)-1-((3R,4R)-3-methyltetrahydro-2H-pyran-4-yl)-7-(trifluoromethyl)-2,3-dihydroquinazolin-4(1H)-one]	794 to 7940	
Cc1[nH]c(=O)ccc1N1CN(c2cc(F)cc(F)c2C)c2ccc(C(F)(F)F)cc2C1=O [Example 235, 1-(3,5-difluoro-2-methylphenyl)-3-(2-methyl-6-oxo-1,6-dihydropyridin-3-yl)-6-(trifluoromethyl)-2,3-dihydroquinazolin-4(1H)-one]	794 to 7940	
Cc1cc(F)ccc1N1CN(c2ccc(=O)[nH]c2C)C(=O)c2cc(OC(F)(F)F)ccc21 [Example 188, 1-(4-fluoro-2-methylphenyl)-3-(2-methyl-6-oxo-1,6-dihydropyridin-3-yl)-6-(trifluoromethoxy)-2,3-dihydroquinazolin-4(1H)-one]	≤ 100	
Cc1[nH]c(=O)ccc1N1CN(c2cccc(C#N)c2C)c2ccc(Cl)cc2C1=O [Example 128, 3-(6-chloro-3-(2-methyl-6-oxo-1,6-dihydropyridin-3-yl)-4-oxo-3,4-dihydroquinazolin-1(2H)-yl)-2-methylbenzonitrile]	126 to 631	

Compound	IC50 [1] [nM]	IC50 [2] [nM]
CCc1[nH]c(=O)ccc1N1CN(c2ccc(F)cc2C)c2ccc(C(F)(F)F)cc2C1=O [Example 64, 3-(2-ethyl-6-oxo-1,6-dihydropyridin-3-yl)-1-(4-fluoro-2-methylphenyl)-6-(trifluoromethyl)-2,3-dihydroquinazolin-4(1H)-one]	≤ 100	
Cc1cc(F)ccc1N1CN(c2ccc(=O)[nH]c2C)C(=O)c2cc(C#N)c(C(F)(F)F)cc21 [Example 166, 1-(4-fluoro-2-methylphenyl)-3-(2-methyl-6-oxo-1,6-dihydropyridin-3-yl)-4-oxo-7-(trifluoromethyl)-1,2,3,4-tetra-hydroquinazoline-6-carbonitrile]	≤ 100	
Cc1cc(F)ccc1N1CN(c2ccc(=O)[nH]c2C#N)C(=O)c2ccc(C(F)(F)F)cc21 [drawing 300, 3-(1-(4-fluoro-2-methylphenyl)-4-oxo-7-(trifluoromethyl)-1,4-dihydroquinazolin-3(2H)-yl)-6-oxo-1,6-dihydropyridine-2-carbonitrile]		251
Cc1cc(F)ccc1N1CN(c2ccc(=O)[nH]c2)C(=O)c2ccc(C(F)(F)F)c(C)c21 [Example 45, 1-(4-fluoro-2-methylphenyl)-8-methyl-3-(6-oxo-1,6-dihydropyridin-3-yl)-7-(trifluoromethyl)-2,3-dihydroquinazolin-4(1H)-one]	794 to 7940	
Cc1cc(F)ccc1N1CN(c2ccc(=O)[nH]c2C)C(=O)c2ccc(C3CC3)cc21 [Example 187, 7-cyclopropyl-1-(4-fluoro-2-methylphenyl)-3-(2-methyl-6-oxo-1,6-dihydropyridin-3-yl)-2,3-dihydroquinazolin-4(1H)-one]	≤ 100	
Cc1cc(F)ccc1N1CN(c2ncc(=O)[nH]c2C)C(=O)c2ccc(C(F)(F)F)cc21 [Example 58, 1-(4-fluoro-2-methylphenyl)-3-(3-methyl-5-oxo-4,5-dihydropyrazin-2-yl)-7-(trifluoromethyl)-2,3-dihydroquinazolin-4(1H)-one]	126 to 631	
Cc1cc(F)ccc1N1CN(c2ccc(=O)[nH]c2C)C(=O)c2ccc(C#N)cc21 [Example 153, 1-(4-fluoro-2-methylphenyl)-3-(2-methyl-6-oxo-1,6-dihydropyridin-3-yl)-4-oxo-1,2,3,4-tetra-hydroquinazoline-7-carbonitrile]	≤ 100	
Cc1cc(F)ccc1N1CN(c2ccc(=O)[nH]c2C)C(=O)c2cc(Cl)c(C#N)nc21 [Example 171, 6-chloro-1-(4-fluoro-2-methylphenyl)-3-(2-methyl-6-oxo-1,6-dihydropyridin-3-yl)-4-oxo-1,2,3,4-tetra-hydropyrido[2,3-d]pyrimidine-7-carbonitrile]	≤ 100	
COc1ccc2c(c1)N(c1ccc(F)cc1C)CN(c1ccc(=O)[nH]c1C)C2=O [Example 99, 1-(4-fluoro-2-methylphenyl)-7-methoxy-3-(2-methyl-6-oxo-1,6-dihydropyridin-3-yl)-2,3-dihydroquinazolin-4(1H)-one]	≤ 100	
Cc1cc(OC(F)(F)F)ccc1N1CN(c2ccc(=O)[nH]c2)C(=O)c2cc(C(F)(F)F)cnc21 [Example 119, 1-(2-methyl-4-(trifluorometh-oxy)phenyl)-3-(6-oxo-1,6-dihydropyridin-3-yl)-6-(trifluoromethyl)-2,3-dihydropyrido[2,3-d]pyrimidin-4(1H)-one]	126 to 631	
Cc1cnccc1N1CN(c2ccc(OC(F)(F)F)cc2C)c2cc(F)c(Cl)cc2C1=O [Example 11, 6-chloro-7-fluoro-1-(2-methyl-4-(trifluoromethoxy)phenyl)-3-(3-methylpyridin-4-yl)-2,3-dihydroquinazolin-4(1H)-one]	126 to 631	
Cc1cc(F)ccc1N1CN(c2ccc(=O)n(C)c2)C(=O)c2ccc(C(F)(F)F)cc21 [Example 1]	794 to 7940	
Cc1cc(F)ccc1N1CN(c2ccc(=O)[nH]c2)C(=O)c2c1ccc(Cl)c2F [Example 78, 6-chloro-5-fluoro-1-(4-fluoro-2-methylphenyl)-3-(6-oxo-1,6-dihydropyridin-3-yl)-2,3-dihydroquinazolin-4(1H)-one]	126 to 631	
CCc1cc(F)ccc1N1CN(c2ccc(=O)[nH]c2C)C(=O)c2cc(C(F)(F)F)cnc21 [Example 176, 1-(2-ethyl-4-fluorophenyl)-3-(2-methyl-6-oxo-1,6-dihydropyridin-3-yl)-6-(trifluoromethyl)-2,3-dihydropyrido[2,3-d]pyrimidin-4(1H)-one]	≤ 100	
Cc1cc(F)ccc1N1CN(c2ccc(=O)[nH]c2C)C(=O)c2cc(Cl)c(Cl)nc21 [Example 73, 6,7-dichloro-1-(4-fluoro-2-methylphenyl)-3-(2-methyl-6-oxo-1,6-dihydropyridin-3-yl)-2,3-dihydropyrido[2,3-d]pyrimidin-4(1H)-one]	≤ 100	

From patent US20230103791A1 (GLAXOSMITHKLINE INTELLECTUAL PROPERTY DEVELOPMENT LIMITED, priority 2019, published 2023)
